Measured values published in PubChem BioAssay (NCI).
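Protocol summary: plate cells (96-well), add compound at 5 concentrations, incubate 48 h, interpolate endpoints linearly. GI50 marks 50% less growth. TGI marks complete inhibition of growth.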

Columns and labels:
Experiment in all cases: inhibition of tumour cell growth, NCI panel, 48 h
[1] = system: NCI-H23 lung
[2] = system: T-47D breast
[3] = system: COLO 205 colon
[4] = system: IGROV1 ovarian
[5] = system: SF-539 CNS
[6] = system: SK-MEL-2 melanoma
[7] = system: SR leukemia
[8] = system: SW-620 colon
[9] = system: SK-MEL-28 melanoma
[10] = system: LOX IMVI melanoma
[11] = system: HCT-15 colon
[12] = system: RXF 393 renal
[13] = system: M14 melanoma
[14] = system: KM12 colon
[15] = system: SN12C renal
[16] = system: A498 renal
[17] = system: HL-60(TB) leukemia
[18] = system: UO-31 renal
[19] = system: DU-145 prostate
[20] = system: HCC-2998 colon
[21] = system: UACC-62 melanoma
[22] = system: MALME-3M melanoma
[23] = system: NCI-H522 lung
[24] = system: HCT-116 colon
[25] = system: HOP-62 NSCLC
[26] = system: SF-268 CNS
[27] = system: OVCAR-5 ovarian
[28] = system: TK-10 renal
[29] = system: OVCAR-4 ovarian
[30] = system: OVCAR-3 ovarian
[31] = system: SNB-19 CNS
[32] = system: SF-295 CNS
[33] = system: SK-OV-3 ovarian
[34] = system: CCRF-CEM leukemia
[35] = system: CAKI-1 renal
[36] = system: NCI-H460 lung
[37] = system: MOLT-4 leukemia
[38] = system: HOP-92 NSCLC
[39] = system: K-562 leukemia
[40] = system: SK-MEL-5 melanoma
[41] = system: SNB-75 CNS
[42] = system: MDA-MB-435
[43] = system: MCF7 breast
[44] = system: NCI/ADR-RES ovarian
[45] = system: PC-3 prostate
[46] = system: UACC-257 melanoma
[47] = system: 786-0 renal
[48] = system: HS 578T breast
[49] = system: NCI-H226 lung
[50] = system: OVCAR-8 ovarian
[51] = system: BT-549 breast
[52] = system: MDA-MB-231 breast
[53] = system: ACHN renal
[54] = system: RPMI-8226 leukemia
[55] = system: U251 CNS
[56] = system: A549 NSCLC
[57] = system: HT29 colon

## Cn1cc(C2=C(c3cn(CCSC(=N)N)c4ccccc34)C(=O)NC2=O)c2ccccc21
[1]
  GI50: 3.53 µM
  TGI: 7.92 µM
[2]
  GI50: 3.24 µM
  TGI: 8.25 µM
[3]
  GI50: 1.13 µM
  TGI: 4.52 µM
[4]
  GI50: 4.92 µM
  TGI: 9.46 µM
[5]
  GI50: 3.63 µM
  TGI: 7.62 µM
[6]
  GI50: 2.79 µM
  TGI: 6.22 µM
[7]
  GI50: 1.23 µM
  TGI: 6.87 µM
[8]
  GI50: 3.25 µM
  TGI: 7.05 µM
[9]
  GI50: 3.53 µM
  TGI: 7.06 µM
[10]
  GI50: 3.02 µM
  TGI: 6.52 µM
[11]
  GI50: 5.21 µM
  TGI: 11.9 µM
[12]
  GI50: 3.56 µM
  TGI: 8.23 µM
[13]
  GI50: 3.74 µM
  TGI: 8.01 µM
[14]
  GI50: 3.13 µM
  TGI: 6.57 µM
[15]
  GI50: 2.8 µM
  TGI: 6.37 µM
[16]
  GI50: 4.22 µM
  TGI: 8.95 µM
[17]
  GI50: 4.65 µM
  TGI: 10 µM
[18]
  GI50: 3.63 µM
  TGI: 7.71 µM
[19]
  GI50: 3.94 µM
  TGI: 7.81 µM
[20]
  GI50: 4.13 µM
  TGI: 8.07 µM
[21]
  GI50: 3.94 µM
  TGI: 7.43 µM
[22]
  GI50: 4.08 µM
  TGI: 7.83 µM
[23]
  GI50: 1.88 µM
  TGI: 5.64 µM
[24]
  GI50: 1.45 µM
  TGI: 5.77 µM
[25]
  GI50: 3.81 µM
  TGI: 7.98 µM
[26]
  GI50: 3.91 µM
  TGI: 8.18 µM
[27]
  GI50: 6.25 µM
  TGI: 14.1 µM
[28]
  GI50: 3.15 µM
  TGI: 6.54 µM
[29]
  GI50: 3.88 µM
  TGI: 8.96 µM
[30]
  GI50: 3.37 µM
  TGI: 6.74 µM
[31]
  GI50: 4.74 µM
  TGI: 10.3 µM
[32]
  GI50: 3.47 µM
  TGI: 7.39 µM
[33]
  GI50: 2.79 µM
  TGI: 6.56 µM
[34]
  GI50: 1.38 µM
  TGI: 12.7 µM
[35]
  GI50: 4.47 µM
  TGI: 9.25 µM
[36]
  GI50: 3.84 µM
  TGI: 7.69 µM
[37]
  GI50: 1.98 µM
  TGI: 7.95 µM
[38]
  GI50: 2.38 µM
  TGI: 8.78 µM
[39]
  GI50: 1.87 µM
  TGI: 6.1 µM
[40]
  GI50: 3.83 µM
  TGI: 7.43 µM
[41]
  GI50: 1.49 µM
  TGI: 5.84 µM
[42]
  GI50: 1.73 µM
  TGI: 5.25 µM
[43]
  GI50: 1.19 µM
  TGI: 4.55 µM
[44]
  GI50: 13.2 µM
  TGI: 25 µM
[45]
  GI50: 3.51 µM
  TGI: 8.4 µM
[46]
  GI50: 3.85 µM
  TGI: 7.79 µM
[47]
  GI50: 4.29 µM
  TGI: 10.7 µM
[48]
  GI50: 3.24 µM
  TGI: 10.4 µM
[49]
  GI50: 4.49 µM
  TGI: 12.2 µM
[50]
  GI50: 3.95 µM
  TGI: 8.91 µM
[51]
  GI50: 4.11 µM
  TGI: 8.31 µM
[52]
  GI50: 4.12 µM
  TGI: 8.29 µM
[53]
  GI50: 3.81 µM
  TGI: 7.74 µM
[54]
  GI50: 4.18 µM
  TGI: 10.1 µM
[55]
  GI50: 2.91 µM
  TGI: 6.32 µM
[56]
  GI50: 3.94 µM
  TGI: 8.18 µM
[57]
  GI50: 1.31 µM
  TGI: 5.28 µM
